Data on four substances can be found in paper PMC2972358 (Journal of molecular biology, 2010).

Experiment [1] has as its target T1, human MC1R (Homo sapiens, UniProt Q01726). The conditions noted are these: at high concentration, printed in the Ki column, cited from earlier work.
Experiment [2] concerns the target human melanocortin receptor MC1R (Homo sapiens, UniProt Q01726). Format: cell-based. The settings on record: absence of NDP-MSH; basal response taken as zero; HEK-293 cells with human MC1R.
Experiment [3] deals with human MC4R (Homo sapiens, UniProt P32245). Kind of experiment: Eu-NDP-MSH displacement binding assay, MC4R.
Experiment [4] has as its target T1, human MC1R. In words: Eu-NDP-MSH displacement binding assay, MC1R.

Read-outs that look alike come from different tables or passages of the source. Bridges are numbered along the chain shown (N, C = ends). Where no end group is shown, it is not given here.

T1 sequence (Q01726 whole entry): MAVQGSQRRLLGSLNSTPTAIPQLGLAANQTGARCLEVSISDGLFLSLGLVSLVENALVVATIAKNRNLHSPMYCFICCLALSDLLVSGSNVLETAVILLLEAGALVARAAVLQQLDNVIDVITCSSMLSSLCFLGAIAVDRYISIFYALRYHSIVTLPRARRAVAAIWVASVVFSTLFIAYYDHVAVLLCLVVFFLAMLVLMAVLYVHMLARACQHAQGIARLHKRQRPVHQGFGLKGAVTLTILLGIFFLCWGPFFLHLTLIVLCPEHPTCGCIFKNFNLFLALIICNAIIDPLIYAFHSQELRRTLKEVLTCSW
Sequence of human MC4R (P32245 whole entry): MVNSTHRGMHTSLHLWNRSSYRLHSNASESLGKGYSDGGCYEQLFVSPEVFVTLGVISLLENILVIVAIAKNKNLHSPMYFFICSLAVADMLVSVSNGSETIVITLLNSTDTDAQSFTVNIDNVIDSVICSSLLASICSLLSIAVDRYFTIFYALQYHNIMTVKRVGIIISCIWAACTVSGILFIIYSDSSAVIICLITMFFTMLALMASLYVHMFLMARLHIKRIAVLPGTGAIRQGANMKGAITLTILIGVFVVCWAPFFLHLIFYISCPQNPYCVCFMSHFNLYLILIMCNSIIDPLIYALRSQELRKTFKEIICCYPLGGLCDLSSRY
Sequence of human melanocortin receptor MC1R (Q01726 whole entry): as the sequence (Q01726 whole entry) above

For the substance “CVRLHESCLGQQVPCCDPCATCYCRFFNAFCYCRKLGTAMNPCSRT (bicyclic or more) [AgRP [chi(−1 −1 −1)], reference compound]”, the “MC1R suppression of NDP-MSH binding (partial displacement of agonist)” value in experiment [1] and in experiment [1] (listed as chi(−1 −1 −1)) was 47% throughout.
In the case of “CVRLHESCLGQQVPCCDPAATCYCRFFNAFCYCR (also: bicyclic or more (positions not given here)) [chi(−1 −1 0)]”, in experiment [1], the “MC1R suppression of NDP-MSH binding (partial displacement of agonist)” value is on record as 26%.
As for “CVRLHESCLGQQVPCCDPAATCYCRFFRSACYCR (also: bicyclic or more (positions not given here)) [chi(−1 +1 0)]”, the “Effect on cAMP production at MC1R (functional class)” value in experiment [2] is “agonists”.
As usually defined, the Ki is the equilibrium dissociation constant of an inhibitor or competing ligand from its target. High values mean lower affinity, low ones higher affinity. For the substance “Ac-KKVVRPRTPLSAPCVATRNSCKPPAPACCDPCASCYCRFFNAFCYCRVLSLNC-NH2 (disulfide 14-29, 21-35, 28-46, 32-53, 37-44) [chi(+1 −1 +1)]”, the results for the Ki in experiment [3] and in experiment [4] were 2.1 ± 0.3 nM and 4.9 ± 1.1 nM, respectively. The same substance yielded an MC4R fold diff. in experiment [3] (fold difference of MC4R Ki relative to ASIP [chi(+1 +1 +1)]) of 1.6. In experiment [4] (fold difference of MC1R Ki relative to ASIP [chi(+1 +1 +1)]), this substance showed an MC1R fold diff. of 7.0.
